Laboratory results reported in patent US10633386B2, “BET protein degraders” (THE REGENTS OF THE UNIVERSITY OF MICHIGAN, priority 2016, dated 2020).
Values belong to the compound of their own block, whether it stands above or below them.

Experiments:
MDA-MB-468 xenograft = test: In vivo antitumor activity in MDA-MB-468 xenograft model; set-up: species or system SCID mice
Experimental: (§1) For the in vivo efficacy experiments of this example, when tumors reached 80-200 mm^3, SCID mice were randomized into groups. Cpd. A, Cpd. No. 4, Cpd. No. 6, or vehicle control (10% PEG400: 3% Cremophor: 87% PBS, or 2% TPGS:98% PEG200) was given at the dose and duration indicated. Tumor sizes and animal weights were measured 2-3 times per week. Tumor volume (mm^3)=(length×width^2)/2. Tumor growth inhibition was calculated as TGI (%)=(Vc−Vt)/(Vc−Vo)*100, where Vc, Vt are the median of control and treated groups at the end of the study and Vo at the start. All the in vivo studies were performed under an animal protocol approved by the University Committee on Use and Care of Animals of the University of Michigan, in accordance with the recommendations in the Guide for the Care and Use of Laboratory Animals of the National Institutes of Health.
(§2) No. 4 was determined in xenograft tumor models of TNBC cell lines.

MOLM-13 = test: Cell growth inhibition (CellTiter-Glo), MOLM-13; assay type: cell-based; settings: Homo sapiens, MOLM-13, 96 h, MOLM-13 cells, 4 days
Experimental: (§3) Cell growth inhibitory activity of representative BET bromodomain degraders was determined using CellTiter-Glo® Luminescent Cell Viability Assay. Cells were seeded in 384-well white opaque cell culture plates at a density of 2,000 cells/well with serially diluted compounds and incubated at 37° C. in an atmosphere of 95% air and 5% CO2 for 4 days. Cell viability was determined using the CellTiter-Glo® Luminescent Cell Viability Assay Kit (Promega, Madison, Wis.) according to the manufacture's instruction. Briefly, a volume of CellTiter-Glo® Reagent equal to the volume of cell culture medium was added to each well, and then the plates were incubated at room temperature for 10-20 minutes. The luminescent signal was measured using a Tecan Infinite M1000 multimode microplate reader (Tecan, Morrisville, N.C.). The half maximal inhibitory concentration (IC50) was calculated using the GraphPad Prism 5 software (GraphPad Software, La Jolla, Calif.).

MDA-MB-231 = test: Cell growth inhibition (CellTiter-Glo), MDA-MB-231; assay type: cell-based, human; settings: Homo sapiens, MDA-MB-231, 96 h, MDA-MB-231 cells, 4 days
Experimental: as §3

MDA-MB-231 xenograft = test: In vivo antitumor activity in MDA-MB-231 xenograft model (Example 25); set-up: species or system SCID mice
Experimental: as §1, §2

TNBC cell lines [1] = test: Combination apoptosis induction (immunoblotting and/or Annexin-PI staining); assay type: cell-based; settings: for effect on Cpd. No. 4-induced apoptosis: MDA-MB-468, 250 nM with Cpd. No. 4 50 nM (FIG. 14)
Experimental: Immunoblotting and/or Annexin-PI staining confirmed that BM-1197 (250 nM), ABT-263 (250 nM), and A-1155463 (250 nM) potentiated Cpd. No. 4-induced apoptosis (50 nM) in MDA-MB-468 (FIG. 14) and other TNBC cell lines (data not shown). Synergistic induction of apoptosis by Cpd. […] No. 4-induced apoptosis in these cell lines. […] A with either BM-1197 (FIGS. 15 and 16) or ABT-263 (data not shown). […] No. 4 and BM-1197 was also detected in additional TNBC cell lines responsive to Cpd. No. 4-induced apoptosis (BT-20 and MDA-MB-157) (data not shown), further supporting that BCL-XL inhibitors potentiate Cpd. No. 4-induced apoptosis in TNBC.

TNBC cell lines [2] = test: Combination growth inhibition with BCL-2/BCL-XL inhibitors (Bliss independence model); assay type: cell-based; settings: 6 of the 7 TNBC cell lines tested (data not shown)
Experimental: MCL1 and BCL-XL are important but independent determinants of cell survival in TNBC (Goodwin et al., Cell Death Differ 22:2098-106 (2015); Xiao et al., Mol. Cancer Ther. 14:1837-47 (2015); Petrocca et al., Cancer Cell 24:182-96 (2013)). A panel of TNBC cell lines were treated with Cpd. No. 4 in combination with BCL-2 and/or BCL-XL inhibitors, and the excess growth inhibition was computed over the Bliss independence model for each combination pairs (Berenbaum, Adv. Cancer Res., 35:269-335 (1981)). ABT-263 (Tse et al., Cancer Res. 68:3421-8 (2008)) and BM-1197 (Bai et al., PLoS One 2014; 9(6):e99404 doi 10.1371/journal.pone.0099404) were selected as dual BCL-2/BCL-XL inhibitors, […] as a selective BCL-XL inhibitor (Tao et al., ASC Med. Chem. Lett. 5:1088-93 (2014)) and ABT-199 as a selective BCL-2 inhibitor (Souers et al., Nat. Med. 19:202-8 (2013)).

IC50 (MOLM-13): < 0.8 nM
IC50 (MDA-MB-231): 1 nM
SMILES: CCn1nc(C2CC2)cc1Nc1nc(C(=O)NCCCCCc2cccc3c2CN(C2CCC(=O)NC2=O)C3=O)nc2[nH]c3cc(-c4c(C)noc4C)c(OC)cc3c12 (centres unmarked) [Cpd. No. 6]
tumor growth (MDA-MB-468 xenograft; MDA-MB-468 xenograft model in mice (FIG. 11)): reduce tumor growth
antitumor activity relative to Cpd. A at 50 mg/kg, daily oral dosing, 5 days a week for 3 weeks (MDA-MB-468 xenograft; MDA-MB-468 xenograft model, 5 mg/kg, IV, 3 times per week for 3 weeks): comparable to or stronger than that of Cpd. A
antitumor activity (MDA-MB-468 xenograft; MDA-MB-468 xenograft model, 5 mg/kg, IV, 3 times per week for 3 weeks (FIG. 11)): exerted antitumor activity
tumor growth (MDA-MB-231 xenograft; MDA-MB-231 xenograft model in mice (FIG. 10)): reduce tumor growth
antitumor activity relative to Cpd. A at 50 mg/kg, daily oral dosing, 5 days a week for 3 weeks (MDA-MB-231 xenograft; MDA-MB-231 xenograft model, 5 mg/kg, IV, 3 times per week for 3 weeks): comparable to or stronger than that of Cpd. A
antitumor activity (MDA-MB-231 xenograft; MDA-MB-231 xenograft model, 5 mg/kg, IV, 3 times per week for 3 weeks (FIG. 10)): exerted antitumor activity

SMILES: Cc1c(S(C)(=O)=O)c(-c2cc(F)cc(N3CCN(c4ccc(NS(=O)(=O)c5ccc(N[C@H](CCN6CCC(O)CC6)CSc6ccccc6)c(S(=O)(=O)C(F)(F)F)c5)cc4)CC3)c2)c(-c2ccc(Cl)cc2)n1C(C)C [BM-1197]
apoptosis induction by the combination of Cpd. No. 4 and BM-1197 (TNBC cell lines [1]; BT-20 and MDA-MB-157 (data not shown)): synergistic apoptosis induction
effect on apoptosis induction by Cpd. No. 4 (TNBC cell lines [1]; MDA-MB-213 cells (FIG. 15)): enhances apoptosis induction by Cpd. No. 4
effect on apoptosis induction by Cpd. No. 4 (TNBC cell lines [1]; MDA-MB-453 cells (FIG. 16)): enhances apoptosis induction by Cpd. No. 4
effect on Cpd. No. 4-induced apoptosis (TNBC cell lines [1]): potentiated
synergy with Cpd. No. 4 (excess growth inhibition over Bliss independence model) (TNBC cell lines [2]): Modest to strong synergy

SMILES: CC1(C)CCC(c2ccc(Cl)cc2)=C(CN2CCN(c3ccc(C(=O)NS(=O)(=O)c4ccc(N[C@H](CCN5CCOCC5)CSc5ccccc5)c(S(=O)(=O)C(F)(F)F)c4)cc3)CC2)C1 [ABT-263]
effect on Cpd. No. 4-induced apoptosis (TNBC cell lines [1]): potentiated
synergy with Cpd. No. 4 (excess growth inhibition over Bliss independence model) (TNBC cell lines [2]): Modest to strong synergy

SMILES: CN(C)CC#Cc1ccc(OCCCc2sc(N3CCc4cccc(C(=O)Nc5nc6ccccc6s5)c4C3)nc2C(=O)O)c(F)c1 [A-1155463]
effect on Cpd. No. 4-induced apoptosis (TNBC cell lines [1]): potentiated
synergy with Cpd. No. 4 (excess growth inhibition over Bliss independence model) (TNBC cell lines [2]): Modest to strong synergy
